Strand notation (5' to 3'): a small letter for the sugar, then the base; units joined by * are phosphorothioate-linked, units joined directly phosphodiester-linked; [ ] holds rarer units or linkages, { } end groups; capitals alone tell only the bases. e = 2'-O-(2-methoxyethyl) (MOE); [5mC] = 5-methylcytosine; d = 2'-deoxy (DNA)
What follows are substances tested on human PKK mRNA (assay: Antisense inhibition of human PKK mRNA in HepaRG cells, 5,000 nM (Example 2)). Settings: HepaRG cells, 5,000 nM antisense oligonucleotide, human PKK mRNA; Table 18.
Type: cell-based
Outline: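 qRT-PCR (RTS3454) read-out, RIBOGREEN-normalized; % inhibition vs untreated cells. HepaRG, 20,000 cells/well, electroporation, 5,000 nM ASO, ~24 h.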

Substance	% inhibition
548719 (DNA eG*eT*eA*d[5mC]*dT*dA*dG*dT*dT*dT*d[5mC]*d[5mC]*dT*eA*eT*eA*eA; antisense) [compound 548719]	0%

Same assay, conditions: HepaRG cells, 5,000 nM antisense oligonucleotide; 5-10-5 gapmers; Table 16

Substance	% inhibition
547720 (eG*eA*eA*eA*eG*dA*d[5mC]*dG*dG*d[5mC]*d[5mC]*dA*dA*dT*dG*eG*eG*eA*eA*eA; antisense) [compound 547720]	8%
547717 (eA*e[5mC]*eT*e[5mC]*eT*dG*dG*d[5mC]*dA*d[5mC]*dT*dG*dG*dT*d[5mC]*eA*eT*eG*eG*eA; antisense) [compound 547717]	54%

Same assay, conditions: HepaRG cells, 5,000 nM antisense oligonucleotide; 5-10-5 gapmers; Table 17

Substance	% inhibition
547745 (eT*eT*eG*eG*eT*dG*dG*dT*dG*dG*dG*dA*dT*dT*dG*eG*eT*eG*eG*e[5mC]; antisense) [compound 547745]	55%
547724 (eG*eA*eT*eG*e[5mC]*dA*dT*d[5mC]*d[5mC]*dA*dA*d[5mC]*dA*d[5mC]*dT*eT*eA*e[5mC]*e[5mC]*e[5mC]; antisense) [compound 547724]	16%
547750 (eT*eG*eG*eT*eT*dG*dG*dT*dG*dG*d[5mC]*dG*dG*dG*dA*eT*e[5mC]*eG*eG*eT; antisense) [compound 547750]	41%
547081 (e[5mC]*eT*eG*eT*eA*dG*dT*d[5mC]*d[5mC]*dA*d[5mC]*dT*dA*d[5mC]*dA*e[5mC]*eA*eG*e[5mC]*eA; antisense) [compound 547081]	83%
547022 (eA*eT*eT*eG*eG*dT*dG*dG*d[5mC]*dG*dG*dG*dA*dT*d[5mC]*eG*eG*eT*eG*eG; antisense) [compound 547022]	69%
547766 (antisense eG*e[5mC]*e[5mC]*eT*e[5mC]*dT*d[5mC]*dA*dG*dA*d[5mC]*dG*dG*d[5mC]*dA*e[5mC]*eA*eG*eA*e[5mC]) [compound 547766]	0%
547735 (eG*eG*eT*eA*eG*dG*dA*dT*dT*dG*dG*dT*dG*dG*dT*eG*eG*eG*eA*eT; antisense) [compound 547735]	39%

Same assay, conditions: HepaRG cells, electroporation with 5,000 nM antisense oligonucleotide, approximately 24 hours, PKK mRNA by RT-PCR (RTS3454), relative to untreated control cells; Table 5 experiment

Substance	% inhibition
547278 (antisense eA*e[5mC]*eA*e[5mC]*eA*dA*dT*dT*dG*d[5mC]*dT*dT*d[5mC]*dT*dT*eG*eG*eA*eG*eG) [compound 547278]	70%

Same assay, conditions: HepaRG cells, electroporation with 5,000 nM antisense oligonucleotide, approximately 24 hours, PKK mRNA by RT-PCR (RTS3454), relative to untreated control cells; Table 6 experiment

Substance	% inhibition
547359 (e[5mC]*eG*eG*eG*eA*d[5mC]*dT*dG*dT*dA*d[5mC]*dT*dT*dT*dA*eA*eT*eA*eG*eG; antisense) [compound 547359]	81%
546174 (antisense e[5mC]*e[5mC]*eT*eG*eT*dT*d[5mC]*dG*dA*dT*dG*dT*dA*d[5mC]*dT*eT*eT*eT*eG*eG) [compound 546174]	74%
547327 (antisense eT*eT*eG*eA*eT*dG*dA*d[5mC]*d[5mC]*dA*d[5mC]*dA*dT*dT*dG*e[5mC]*eT*eT*e[5mC]*eA) [compound 547327]	45%
547338 (antisense eT*e[5mC]*eA*eA*e[5mC]*dT*d[5mC]*d[5mC]*dT*dT*dT*dA*dT*dA*dA*eA*eT*eG*eT*e[5mC]) [compound 547338]	71%

Same assay, conditions: HepaRG cells, electroporation, 5,000 nM antisense oligonucleotide, approx. 24 hours, primer probe set RTS3454, relative to untreated control cells; Table 11

Substance	% inhibition
547501 (antisense eA*eT*eT*eG*e[5mC]*d[5mC]*dT*dA*dG*dA*d[5mC]*dT*d[5mC]*dT*dG*eG*eA*e[5mC]*eT*eG) [compound 547501]	55%
547511 (antisense eG*eA*eT*eG*eA*dG*dG*dA*d[5mC]*d[5mC]*d[5mC]*d[5mC]*d[5mC]*d[5mC]*dA*eG*eG*e[5mC]*eT*e[5mC]) [compound 547511]	53%
546354 (antisense eG*eT*eA*e[5mC]*eT*d[5mC]*dA*dG*d[5mC]*dG*dA*d[5mC]*dT*dT*dT*eG*eG*eT*eG*eT) [compound 546354]	47%
546367 (antisense eA*eA*eA*eA*eA*dT*dT*dG*d[5mC]*d[5mC]*dT*dA*dG*dA*d[5mC]*eT*e[5mC]*eT*eG*eG) [compound 546367]	61%
546390 (eG*eT*e[5mC]*eA*eG*d[5mC]*d[5mC]*d[5mC]*d[5mC]*dT*dG*dG*dT*dT*dA*e[5mC]*eG*eG*e[5mC]*eG; antisense) [compound 546390]	70%

Same assay, conditions: HepaRG cells, electroporation, 5,000 nM antisense oligonucleotide, approx. 24 hours, primer probe set RTS3454, relative to untreated control cells; Table 12

Substance	% inhibition
546707 (eG*e[5mC]*eA*eA*eG*dT*d[5mC]*dA*dA*dA*dG*dA*dG*dT*dG*eT*e[5mC]*e[5mC]*eA*e[5mC]; antisense) [compound 546707]	73%
546710 (eG*eA*eA*eG*e[5mC]*d[5mC]*dT*dG*dT*dT*dA*dG*dA*dG*dT*eT*eG*eG*e[5mC]*e[5mC]; antisense) [compound 546710]	73%
547553 (antisense eT*eG*e[5mC]*eT*e[5mC]*d[5mC]*d[5mC]*d[5mC]*dA*dT*dG*d[5mC]*dA*dT*dA*e[5mC]*eT*e[5mC]*eG*e[5mC]) [compound 547553]	64%

Same assay, conditions: Table 7; HepaRG cells, electroporation with 5,000 nM antisense oligonucleotide, approx. 24 hours; PKK mRNA by RT-PCR (RTS3454), relative to untreated control cells

Substance	% inhibition
547383 (eT*eT*e[5mC]*eT*eT*dT*dG*dT*dG*dA*d[5mC]*dT*d[5mC]*dG*dA*eT*eT*eT*eT*e[5mC]; antisense) [compound 547383]	37%
547379 (e[5mC]*eT*e[5mC]*eG*eA*dT*dT*dT*dT*d[5mC]*d[5mC]*dA*dT*dA*d[5mC]*eA*eT*eT*eT*eG; antisense) [compound 547379]	37%
546234 (e[5mC]*e[5mC]*eA*eG*eA*dT*dA*dT*dG*dG*dT*dG*dT*dT*dT*eT*e[5mC]*eT*eT*eG; antisense) [compound 546234]	69%
547378 (eT*eA*e[5mC]*eA*eT*dT*dT*dG*dT*dA*dT*dA*dG*dA*dA*eT*eG*eT*eA*eA; antisense) [compound 547378]	0%
547403 (eA*eT*eT*eT*eT*dA*dG*dA*dA*dT*dG*dG*d[5mC]*dA*dG*eG*eG*eT*eT*e[5mC]; antisense) [compound 547403]	10%
547390 (eA*eT*e[5mC]*e[5mC]*eA*dG*dA*dT*dA*dT*dG*dG*dT*dG*dT*eT*eT*eT*e[5mC]*eT; antisense) [compound 547390]	63%

Same assay, conditions: Table 8; HepaRG cells, electroporation with 5,000 nM antisense oligonucleotide, approx. 24 hours; PKK mRNA by RT-PCR (RTS3454), relative to untreated control cells

Substance	% inhibition
547418 (e[5mC]*eA*e[5mC]*eT*eT*dA*d[5mC]*dA*d[5mC]*dT*dT*d[5mC]*dT*d[5mC]*dT*eT*e[5mC]*e[5mC]*eT*eT; antisense) [compound 547418]	0%
547429 (eA*eA*eT*e[5mC]*eT*d[5mC]*dA*dA*dA*dG*dA*dG*dT*dA*dA*e[5mC]*e[5mC]*eA*eG*eA; antisense) [compound 547429]	81%

Same assay, conditions: Table 9 experiment; HepaRG cells, 20,000 cells per well, electroporation with 5,000 nM antisense oligonucleotide, approx. 24 hours; PKK mRNA by RT-PCR (RTS3454), relative to untreated control cells

Substance	% inhibition
546306 (antisense eT*eT*eT*eG*eG*dT*dG*dA*dA*dT*dA*dA*dT*dA*dA*eT*e[5mC]*eT*e[5mC]*eT) [compound 546306]	65%
547487 (antisense eT*eG*eT*eG*eT*dT*dT*dG*d[5mC]*dA*dA*dA*d[5mC]*dT*dA*eA*eG*eG*eG*eA) [compound 547487]	72%
547451 (antisense eT*eT*eG*eG*eT*dG*dA*dA*dT*dA*dA*dT*dA*dA*dT*e[5mC]*eT*e[5mC]*eT*eT) [compound 547451]	75%
546326 (antisense e[5mC]*e[5mC]*e[5mC]*eA*eA*d[5mC]*dA*dG*dT*dT*dG*dG*dT*dA*dT*eA*eA*eA*eT*eT) [compound 546326]	62%

Same assay, conditions: Table 10 experiment; HepaRG cells, 20,000 cells per well, electroporation with 5,000 nM antisense oligonucleotide, approx. 24 hours; PKK mRNA by RT-PCR (RTS3454), relative to untreated control cells

Substance	% inhibition
546306 (antisense eT*eT*eT*eG*eG*dT*dG*dA*dA*dT*dA*dA*dT*dA*dA*eT*e[5mC]*eT*e[5mC]*eT) [compound 546306]	71%
547487 (antisense eT*eG*eT*eG*eT*dT*dT*dG*d[5mC]*dA*dA*dA*d[5mC]*dT*dA*eA*eG*eG*eG*eA) [compound 547487]	61%
547451 (antisense eT*eT*eG*eG*eT*dG*dA*dA*dT*dA*dA*dT*dA*dA*dT*e[5mC]*eT*e[5mC]*eT*eT) [compound 547451]	64%
546326 (antisense e[5mC]*e[5mC]*e[5mC]*eA*eA*d[5mC]*dA*dG*dT*dT*dG*dG*dT*dA*dT*eA*eA*eA*eT*eT) [compound 546326]	64%

Same assay, conditions: Table 13; human PKK mRNA in HepaRG cells; 5-10-5 gapmers

Substance	% inhibition
547567 (eT*e[5mC]*e[5mC]*eA*e[5mC]*dT*d[5mC]*d[5mC]*dT*dA*dA*dG*dA*dA*dG*eT*eA*eT*eG*eG; antisense) [compound 547567]	60%
547561 (eA*eA*eG*eG*eG*dA*dA*dA*dT*dT*dA*dG*dA*dG*dG*e[5mC]*eA*eG*eG*e[5mC]; antisense) [compound 547561]	57%
547568 (eG*e[5mC]*eA*e[5mC]*e[5mC]*d[5mC]*dT*dT*dT*dT*d[5mC]*dA*dT*dT*dG*eA*eG*eA*eT*eT; antisense) [compound 547568]	70%

Same assay, conditions: human PKK mRNA in HepaRG cells; 5-10-5 gapmers; Table 14

Substance	% inhibition
547609 (antisense e[5mC]*eT*eA*eT*eA*dA*d[5mC]*dA*dA*dT*dA*dT*d[5mC]*dA*d[5mC]*eT*eG*eT*eA*e[5mC]) [compound 547609]	23%

Same assay, conditions: human PKK mRNA, HepaRG cells; 5-10-5 motif oligonucleotides targeting SEQ ID NO: 1 and 10

Substance	% inhibition
547667 (eT*eA*eT*e[5mC]*eA*d[5mC]*dT*dG*dT*dA*d[5mC]*d[5mC]*dT*dA*dT*eA*eA*e[5mC]*eT*eA; antisense) [compound 547667]	55%
547627 (antisense eT*e[5mC]*eT*eA*e[5mC]*d[5mC]*dT*dA*dT*dA*dA*d[5mC]*dT*d[5mC]*dT*eA*eA*e[5mC]*eA*eG) [compound 547627]	71%
547652 (eT*e[5mC]*eA*e[5mC]*eT*dG*dT*dA*d[5mC]*d[5mC]*dT*dA*dT*dA*dA*e[5mC]*eA*eG*eT*eA; antisense) [compound 547652]	59%
